Data on one compound can be found in patent EP2253620B1, “SUBSTITUTED 3-CYANOQUINOLINES AS PROTEIN TYROSINE KINASES INHIBITORS” (Wyeth Holdings LLC, priority 1998, dated 2000).

Type in all cases: biochemical
The target in one test is Mek and Erk (Homo sapiens, UniProt P28482+Q02750). The test is described as follows: Mitogen Activated Protein Kinase (MAPK) coupled assay (Mek-Erk). The note with it: coupled MEK 1 / ERK2; separate entries = separate tests; read-out: Mek and Erk. The procedure: Mitogen Activated Protein Kinase (MAPK) Assay
To evaluate inhibitors of the MAP (mitogen activated protein) kinase a two component coupled standard pharmacological test procedure, which measures phosphorylation of a serine/threonine residue in an appropriate sequence in the substrate in the presence and absence of a putative inhibitor, was used. Recombinant human MEK 1 (MAPKK) was first used to activate recombinant human ERK2 (MAPK) and the activated MAPK (ERK) was incubated with substrate (MBP peptide or MYC peptide) in the presence of ATP, Mg^+2 and radiolabeled ^33P ATP. The phosphorylated peptide was captured on a P 81 phosphocellulose filter (paper filter or embedded in microtiter plate) washed and counted by scintillation methods.
The peptide substrates used in the assay are MBP, peptide substrate ([…]), or synthetic Myc substrate, ([…]•5 TFA. The recombinant enzymes used were prepared as GST fusion proteins of human ERK 2 and human MEK 1. Inhibitor samples were prepared as 10X stocks in 10% DMSO and an appropriate aliquot was used to deliver either 10 ug/ml for a single point screening dose or 100, 10, 1, and 0.1 uM final concentration for a dose response curve. Final DMSO concentrations were less than or equal to 1%.
The reaction was run as follows in 50 mM Tris kinase buffer, pH 7.4 in a reaction volume of 50 ul. The appropriate volume of kinase buffer and inhibitor sample was added to the tube. Appropriate dilution of enzyme was delivered to give 2-5 ug recombinant MAPK (Erk ) per tube. The inhibitor was incubated with MAPK (Erk) for 30 min at 0 deg. C. Recombinant Mek (MAPKK) ( 0.5-2.5 ug) or fully activated Mek (0.05-0.1 units) was added to activate the Erk and incubated for 30 min at 30° C. Then substrate and gamma ^33P ATP was were added to give a final concentration of 0.5- 1 mM MBPP or 250-500 uM Myc; 0.2-0.5 uCi gamma P 33 ATP/tube; 50 µM ATP final concentration. Samples were incubated at 30°C for 30 minutes and the reaction was stopped by adding 25 µl of ice cold 10 %TCA .After samples were chilled on ice for 30 min, 20 µl of sample was transferred onto P 81 phosphocellulose filter paper or appropriate MTP with embedded P 81 filter. Filter papers or MTP were washed 2 times with a large volume of 1% acetic acid, then 2 times with water. The filters or MTP were briefly air dried before addition of scintillant and samples were counted in the appropriate scintillation counter set up for reading ^33P isotope. Samples included a positive control (activated enzyme plus substrate); a no enzyme control; a no substrate control; samples with different concentrations of putative inhibitor; and samples with reference inhibitors (other active compounds or non-specific inhibitors such as staurosporine or K252 B).
The raw data was captured as cpm. Sample replicates were averaged and corrected for background count. Mean cpm data was tabulated by group and % inhibition by a test compound was calculated as (corrected cpm control- corrected. cpm sample/control) X 100 = % inhibition. […] The results obtained for representative compounds of this invention are listed in TABLE 2 where there may be separate entries for the same compound; this is an indication that the compound was evaluated more than one time.

Test [1] concerns the target T1, Kinase insert Domain containing Receptor (KDR: the catalytic domain of the VEGF receptor) (Homo sapiens, UniProt P35968).
T1 construct: KDR: the catalytic domain of the VEGF receptor
The test is described as follows: Inhibition of Kinase insert Domain containing Receptor (KDR) tyrosine kinase activity. An excerpt: Inhibition of Kinase insert Domain containing Receptor (KDR: the catalytic domain of the VEGF receptor)
In this standard pharmacological test procedure, KDR protein is mixed, in the presence or absence of a inhibitor compound, with a substrate peptide to be phosphorylated (a copolymer of glutamic acid and tyrosine, E:Y :: 4:1) and other cofactors such as Mg^++ and sodium vanadate (a protein tyrosine phosphatase inhibitor) in an appropriate buffer to maintain pH (7.2). ATP and a radioactive tracer (either P^32- or P^33- labeled ATP) is then add to initiate phosphorylation. After incubation, the radioactive phosphate associated with the acid-insoluble fraction of the assay mixture is then quantified as reflection of substrate phosphorylation. […] Multiple entries for a given compound indication it was tested multiple times.

Test [2] has as its target T2, epidermal growth factor receptor kinase (Homo sapiens, UniProt P00533).
T2 construct: containing the EGFR cDNA encoding amino acids 645 - 1186 preceded by Met-Ala-(His)6; made in house; host or cells: Sf9 insect cells, recombinant baculovirus vHcEGFR52
Nature of the test: Inhibition of Epidermal Growth Factor Receptor Kinase (EGF-R) using recombinant enzyme. The note with it: averages of the individual determinations.
Procedure: Representative test compounds were evaluated for their ability to inhibit the phosphorylation of the tyrosine residue of a peptide substrate catalyzed by the enzyme epidermal growth factor receptor kinase. […] The enzyme used in this assay is the His-tagged cytoplasmic domain of EGFR. A recombinant baculovirus (vHcEGFR52) was constructed containing the EGFR cDNA encoding amino acids 645 - 1186 preceded by Met-Ala-(His)6. Sf9 cells in 100 mm plates were infected at an moi of 10 pfu/cell and cells were harvested 48 h post infection. A cytoplasmic extract was prepared using 1% Triton X-100 and applied to Ni-NTA column. After washing the column with 20 mM imidazole, HcEGFR was eluted with 250 mM imidazole (in 50 mM Na2HPO4, pH 8.0, 300 mM NaCl). Fractions collected were dialyzed against 10 mM HEPES, pH 7.0, 50 mM NaCl, 10% glycerol, 1ug/mL antipain and leupeptin and 0.1 mM Pefabloc SC. The protein was frozen in dry ice/methanol and stored -70°C.
Test compounds were made into 10 mg/mL stock solutions in 100% dimethylsulfoxide (DMSO). Prior to experiment, stock solutions were diluted to 500 uM with 100% DMSO and then serially diluted to the desired concentration with HEPES buffer (30 mM HEPES pH 7.4).
For the enzyme reaction, 10 µL of each inhibitor (at various concentrations) were added to each well of a 96-well plate. To this was added 3 µL of enzyme (1:10 dilution in 10mM HEPES, pH 7.4 for final conc. of 1:120). This was allowed to sit for 10 min on ice and was followed by the addition of 5 µl peptide (80 µM final conc.), 10 µl of 4X Buffer (Table A), 0.25 µL ^33P-ATP and 12 µL H2O. The reaction was allowed to run for 90 min at room temperature and was followed by spotting the entire volume on to precut P81 filter papers. The filter discs were washed 2X with 0.5% phosphoric acid and radioactivity was measured using a liquid scintillation counter.
The % inhibition of the test compound was determined for at least three different concentrations and the IC50 value was evaluated from the dose response curve. […] CPM(control) is in units of counts per minute and was a number expressing the amount of radiolabled ATP (g-^33P) incorporated into the RR-SRC peptide substrate by the enzyme after 90 minutes at room temperature in the absence of test compound as measured by liquid scintillation counting. The CPM values were corrected for the background counts produced by ATP in the absence of the enzymatic reaction. The IC50 values in TABLE 1 are averages of the individual determinations.

Test [3] deals with Epithelial Cell Kinase (ECK) (Homo sapiens, UniProt P29317). The test is described as follows: Inhibition of Epithelial Cell Kinase (ECK) tyrosine kinase activity. On the procedure: In this standard pharmacological test procedure, a biotinylated peptide substrate is first immobilized on neutravidin-coated microtiter plates. The test drug, the Epithelial Cell Kinase (ECK), Mg^++, sodium vanadate (a protein tyrosine phosphatase inhibitor), and an appropriate buffer to maintain pH (7.2) are then added to the immobilized substrate-containing microtiter wells. ATP is then added to initiate phosphorylation. After incubation, the assay plates are washed with a suitable buffer leaving behind phosphorylated peptide which is exposed to horse radish peroxidase (HRP)-conjugated anti-phosphotyrosine monoclonal antibody. The antibody-treated plates are washed again and the HRP activity in individual wells is quantified as a reflection of degree of substrate phosphorylation. […] Multiple entries for a given compound indication it was tested multiple times.
Sequence of Epithelial Cell Kinase (ECK) (P29317 24-976, species assumed): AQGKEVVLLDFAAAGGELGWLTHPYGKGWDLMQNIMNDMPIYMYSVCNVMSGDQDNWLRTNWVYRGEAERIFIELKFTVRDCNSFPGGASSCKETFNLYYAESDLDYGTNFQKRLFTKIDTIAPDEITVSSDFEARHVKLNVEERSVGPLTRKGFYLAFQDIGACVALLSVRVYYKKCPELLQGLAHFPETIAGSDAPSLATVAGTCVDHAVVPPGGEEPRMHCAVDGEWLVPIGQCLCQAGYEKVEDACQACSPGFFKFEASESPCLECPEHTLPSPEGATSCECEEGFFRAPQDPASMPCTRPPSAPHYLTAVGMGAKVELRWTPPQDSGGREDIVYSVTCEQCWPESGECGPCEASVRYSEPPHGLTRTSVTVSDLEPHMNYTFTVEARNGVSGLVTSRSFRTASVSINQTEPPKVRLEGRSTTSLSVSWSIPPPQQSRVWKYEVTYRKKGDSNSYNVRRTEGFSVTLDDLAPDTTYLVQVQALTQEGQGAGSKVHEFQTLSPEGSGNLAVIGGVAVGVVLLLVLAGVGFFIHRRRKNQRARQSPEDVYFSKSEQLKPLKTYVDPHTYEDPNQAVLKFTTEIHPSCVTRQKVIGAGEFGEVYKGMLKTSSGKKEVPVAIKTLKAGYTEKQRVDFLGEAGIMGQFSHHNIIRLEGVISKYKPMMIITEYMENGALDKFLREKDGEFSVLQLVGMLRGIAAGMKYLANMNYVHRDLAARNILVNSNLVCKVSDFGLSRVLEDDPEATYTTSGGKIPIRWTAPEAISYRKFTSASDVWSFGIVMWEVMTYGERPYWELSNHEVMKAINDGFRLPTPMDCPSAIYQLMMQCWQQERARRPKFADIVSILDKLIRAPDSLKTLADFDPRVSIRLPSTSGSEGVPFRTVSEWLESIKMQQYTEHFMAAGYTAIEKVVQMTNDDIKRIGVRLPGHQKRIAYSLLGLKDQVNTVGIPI

Sequence of Mek and Erk (Q02750 whole entry): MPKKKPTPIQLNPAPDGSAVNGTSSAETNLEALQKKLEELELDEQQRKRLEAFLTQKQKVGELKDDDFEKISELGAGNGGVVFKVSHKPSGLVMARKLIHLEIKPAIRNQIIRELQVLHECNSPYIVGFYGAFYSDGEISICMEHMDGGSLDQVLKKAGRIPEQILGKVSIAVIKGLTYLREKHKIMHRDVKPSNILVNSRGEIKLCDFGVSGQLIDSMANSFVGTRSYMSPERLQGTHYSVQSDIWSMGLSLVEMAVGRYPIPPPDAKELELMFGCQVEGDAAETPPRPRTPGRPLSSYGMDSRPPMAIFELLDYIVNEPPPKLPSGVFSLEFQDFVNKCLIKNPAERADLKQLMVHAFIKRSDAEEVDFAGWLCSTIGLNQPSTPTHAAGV
Sequence of Mek and Erk (P28482 2-360): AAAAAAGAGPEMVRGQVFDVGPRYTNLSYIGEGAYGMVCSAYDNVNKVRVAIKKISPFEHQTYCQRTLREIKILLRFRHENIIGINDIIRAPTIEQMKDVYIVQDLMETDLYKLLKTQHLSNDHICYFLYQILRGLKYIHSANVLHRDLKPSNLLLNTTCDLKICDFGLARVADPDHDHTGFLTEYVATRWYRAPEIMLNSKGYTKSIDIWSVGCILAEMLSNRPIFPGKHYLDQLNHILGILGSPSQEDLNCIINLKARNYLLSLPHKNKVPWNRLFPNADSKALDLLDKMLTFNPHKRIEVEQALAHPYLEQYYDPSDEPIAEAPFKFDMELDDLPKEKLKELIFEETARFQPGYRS
T2 sequence (P00533 669-1210): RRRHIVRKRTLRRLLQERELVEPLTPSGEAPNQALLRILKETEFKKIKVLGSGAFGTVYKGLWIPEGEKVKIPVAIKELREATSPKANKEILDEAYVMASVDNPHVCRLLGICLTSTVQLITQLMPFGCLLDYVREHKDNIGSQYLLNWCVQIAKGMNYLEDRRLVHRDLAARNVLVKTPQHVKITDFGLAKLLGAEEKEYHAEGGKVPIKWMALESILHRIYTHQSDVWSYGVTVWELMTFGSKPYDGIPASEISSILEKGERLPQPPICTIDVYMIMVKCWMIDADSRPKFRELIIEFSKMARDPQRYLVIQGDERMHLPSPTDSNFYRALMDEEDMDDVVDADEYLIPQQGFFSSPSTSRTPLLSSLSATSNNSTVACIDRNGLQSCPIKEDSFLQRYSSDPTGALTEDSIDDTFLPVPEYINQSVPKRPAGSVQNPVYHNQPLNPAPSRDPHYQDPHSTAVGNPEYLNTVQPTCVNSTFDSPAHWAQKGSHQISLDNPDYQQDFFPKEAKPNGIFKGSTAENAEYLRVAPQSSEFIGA
T1 sequence (P35968 834-1162 limits assumed): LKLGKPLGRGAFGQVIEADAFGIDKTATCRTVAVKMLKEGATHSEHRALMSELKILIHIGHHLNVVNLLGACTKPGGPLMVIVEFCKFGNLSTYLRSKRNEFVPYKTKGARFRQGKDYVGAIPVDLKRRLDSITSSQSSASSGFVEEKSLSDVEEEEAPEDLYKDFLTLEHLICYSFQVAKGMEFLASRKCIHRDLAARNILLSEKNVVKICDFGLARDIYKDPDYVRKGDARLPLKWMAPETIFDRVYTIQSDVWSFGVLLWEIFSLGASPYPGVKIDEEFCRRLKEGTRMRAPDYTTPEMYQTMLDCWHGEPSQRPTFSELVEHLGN

Take `N#Cc1cnc2ccc(NC(=O)C#CCN3CCC4(CC3)OCCO4)cc2c1Nc1cccc(Br)c1` [Example 82, 4-(1,4-Dioxa-8-azaspiro[4,5]dec-8-yl)but-2-ynoic Acid [4-(3-Bromophenylamino)-3-cyanoquinolin-6-yl] Amide]: the IC50 at Mek and Erk was 30 µM; in test [1] it was more than 1.83 µM; in test [2] it was 0.05 µM; in test [3], more than 1.83 µM.
